According to US11028137B2, “Mutant islet amyloid polypeptides with improved solubility and methods for using the same” (priority 2017, dated 2021):
Where a SMILES comes first, the peptide text is derived from it.

How the values were obtained:
[1] = pH 7
Procedure: 100 μL each solution was obtained immediately following dissolution with Novolin-N® and was centrifuged using a Beckman Coulter Microfuge (22R Centrifuge) at 24° C. for 20 minutes. The relative centrifugal force used was 1.75×104 g. Aliquots of each sample were immediately frozen and lyophilized. The remaining portion of each sample was not centrifuged and were incubated at 25° C. without stirring. Samples were collected again following the same procedures after 1 day, 7 days and 30 days. Dry samples were redissolved in 4:1 HPLC buffer mix (4A:1B, below) and immediately injected for liquid chromatography-mass spectroscopy (LC-MS) measurements. The HPLC buffers were (A) H2O (0.1% acetic acid and 0.02% TFA) and (B) CH3CN (0.1% acetic acid and 0.02% TFA). Solubility of each co-formulated sample was determined by measuring the absorbance from the liquid chromatogram traces at 215±8 nm and at 277±8 nm at each time point tested. points (0 hours, 24 hours, 7 days and 30 days post-formulation).

[2] = Transmission electron microscopy (TEM) of amyloid aggregates; type: physicochemical; details: after 7 days of incubation, end of kinetic experiment
Procedure: Transmission Electron Microscopy (TEM). TEM images were recorded using an FEI Bio TwinG^2 Transmission Electron Microscope at the central microscopy center at Stony Brook University. 15 μL aliquots of the samples used for fluorescence assays were removed at the end of each kinetic experiment, blotted on a carbon formvar-coated 300-mesh copper grid for 1 min and then negatively stained with saturated uranyl acetate for 1 min. Images were taken at a 68,000× magnification and 100 nm under focus. Mutant-hIAPP polypeptides of the present disclosure were further analyzed using TEM. […] In contrast, no amyloid fibrils were formed after a 1 week (FIGS. 3B-E, left) or 6 week (FIGS. 3B-E, right) culture with the any of the mutant-hIAPP analogs tested.

[3] = Thioflavin-T fluorescence assay of amyloid formation kinetics; type: physicochemical; details: 16 μM peptide, 10 mM PBS pH 7.4, 25° C., no stirring; 1 week and 6 week incubations
Procedure: Sample Preparation. Each peptide was dissolved into 100% hexafluoroisoproponal (HFIP) to make a 0.5 mM stock solution. Stock solutions were filtered using […] Acrodisc syringe filter with a GHP membrane and the required amount of peptide was lyophilized overnight to remove HFIP. Dry peptide was dissolved into the appropriate buffer for the fluorescence assays. Fluorescence Assays. Thioflavin-T binding assays, conducted without HFIP or stirring at 25° C., were utilized to monitor amyloid formation kinetics. Fluorescence measurements were performed using a Spectramax Gemini EM plate reader. Corning 96-well non-binding surface black plates with lids were used and were sealed with polyethylene sealing tape. Samples were prepared by dissolving dry peptide into 10 mM PBS buffer (pH 7.4) and 32 μM thioflavin-T solution immediately before the measurement. Thioflavin-T fluorescence was measured with 450 nm excitation and emission at 485 nm was monitored. The final concentrations were 16 μM peptides. After creating the mutant-hIAPP polypeptides of the present disclosure, applicants tested the propensity of the different analogs to form amyloid at pH 7.4 using thioflavin-T fluorescence assays (FIGS. 2A-D) and TEM (FIGS. 3A-E). […] Amyloid formation follows a sigmoidal time course consisting of a lag phase in which few, if any, fibrils are formed, followed by a growth phase and a saturation phase in which amyloid fibrils are in equilibrium with soluble peptide.

[4] = molecular target: T1, human amylin receptor (hAMY1(a)) (Homo sapiens, UniProt O60894+P30988); experiment: cAMP production (LANCE cAMP assay) in transfected Cos-7 cells; type: cell-based; details: cAMP production, Cos-7 cells expressing hAMY1(a); mean ± spread; read-out: Human Amylin1(a) receptor binding data pEC50 (converted)
T1 construct: expressed in transfected cells; host or cells: Cos-7 cells, transient transfection with PEI, pcDNA3.1 vectors
Procedure: (§1) Cell Culture and Transfection. Cos-7 cells were cultured and transfected for receptor activity assays as previously described in Bailey, R. J., and Hay, D. L. Peptides (2006) 27, pp. 1367-1375, the entire contents of which is incorporated herein by reference. Specifically, cells were cultured in Dulbucco's modified eagle medium (DMEM) with 8% heat-inactivated fetal bovine serum (FBS) and kept in a 37° C. humidified 95% air/5% CO2 incubator. Cells were plated at a density of 18,000-20,000 cells/well (depending on cell passage) in 96-well culture plate and returned to the incubator for approximately 18-24 hours. Transient transfections were carried out using polyethyleneimine (PEI) as described previously and maintained at 37° C. in a humidified 95% air/5% CO2 incubator for 36-48 hours. All DNA constructs used in this these were in pcDNA3.1 vectors.
(§2) cAMP Assay: Measurement of intracellular cAMP was achieved using a time-resolved fluorescent resonance energy transfer assay (LANCE cAMP assay, PerkinElmer), similar to the previously described Alphascreen assay as described in Gingell, J. J., et al. Peptides (2010) 31, pp. 1400-1404, with the following changes. Following stimulation with peptide agonist, cAMP assay media from the wells was thoroughly aspirated and 50 μl of ice-cold absolute ethanol added to each well. Plates were then placed in a −30° C. freezer for 10 minutes or overnight prior to assay, then removed and allowed to air dry in a fume hood for 1-2 hours. After ethanol evaporated from the plates, 50 μl of LANCE detection buffer (lysis buffer, 0.35% Triton X-100, 50 mM HEPES and 10 mM calcium chloride in ddH2O, pH 7.4) was added per well and left on a plate shaker for 10-15 minutes at room temperature. Meanwhile, a cAMP standard curve was generated using LANCE detection buffer and a serially diluted cAMP standard (50 μM) ranging from 1 μM to 10 pM. The serially diluted cAMP standards (5 μl) and cell lysates (5 μl) were transferred into 384-well opti-plates and sealed with a Sealplate®-A-384-well microplate adhesive film and briefly centrifuged (10 seconds, 500 rpm, 23° C.). A 1:200 dilution of LANCE assay Alexa Fluor® 647 anti-cAMP antibody was prepared in detection buffer and 5 μl added to each well. Plates were sealed and briefly centrifuged again (10 seconds, 500 rpm, 23° C.) and left to incubate, sealed for 30 minutes at room temperature. During this incubation, detection mix was made up consisting of detection buffer, Europium-W8044 labelled streptavidin (1:4500) and biotin-cAMP (1:1500). After 30 minutes incubation, 10 μl of detection mix was added to each well, plates were centrifuged (30 seconds, 500 rpm, 23° C.), sealed and left to incubate for 1 hour at room temperature. Plates were read after an overnight incubation on an Envision plate reader. A standard curve was included in each experiment to ensure accurate quantification of cAMP.
(§3) Data Analysis for Receptor Assays: Data were derived from independent experiments for statistical analysis and all experiments were performed and replicated. Quantification of cAMP was obtained from a standard curve included in each experiment and plotted using the software GraphPad Prism 6.0 (GraphPad Software Inc, San Diego, Calif., USA) with a non-linear regression 3-parameter logistic equation with a Hill Slope of 1 to determine the pEC50. The pEC50 values from the fits were combined from different experimental days and statistically tested for difference from the WT peptide using the Student's t-test with statistical significance defined as * p<0.05, ** p<0.01, *** p<0.001. Due to variability in amount of cAMP produced between experimental days, data were normalized to the control peptide for each experiment to obtain Emax values. For each analogue, data were normalized to the maximum (Emax) and minimum (Emin) responses of h-amylin. […]

[5] = molecular target: T2, human calcitonin receptor (hCT(a)) (Homo sapiens, UniProt P30988); experiment: as above; type: cell-based; details: cAMP production, Cos-7 cells expressing hCT(a); mean ± spread; read-out: Human calcitonin receptor binding data pEC50 (converted)
T2 construct: expressed in transfected cells; host or cells: Cos-7 cells, transient transfection with PEI, pcDNA3.1 vectors
T2 sequence (P30988 25-474): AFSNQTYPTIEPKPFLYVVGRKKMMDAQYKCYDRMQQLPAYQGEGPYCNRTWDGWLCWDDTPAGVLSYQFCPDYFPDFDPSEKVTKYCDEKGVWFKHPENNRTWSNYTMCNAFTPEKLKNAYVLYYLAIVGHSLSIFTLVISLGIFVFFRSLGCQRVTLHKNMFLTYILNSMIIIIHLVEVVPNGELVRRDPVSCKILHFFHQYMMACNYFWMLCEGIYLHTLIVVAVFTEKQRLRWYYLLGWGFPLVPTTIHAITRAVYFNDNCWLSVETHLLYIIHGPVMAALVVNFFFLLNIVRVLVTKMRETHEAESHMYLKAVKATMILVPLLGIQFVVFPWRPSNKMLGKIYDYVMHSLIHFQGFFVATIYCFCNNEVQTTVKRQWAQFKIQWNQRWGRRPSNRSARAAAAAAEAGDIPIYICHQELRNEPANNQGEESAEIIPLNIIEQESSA
Procedure: as §1, §2, §3

[6] = pH 7.4
Procedure: Dry peptides were dissolved into 10 mM PBS buffer at pH 7.4 at different initial concentrations, and were incubated for 7 days at 25° C. without stirring. Each sample was then centrifuged using a Beckman Coulter Microfuge 22R Centrifuge at 24° C. for 20 min. The relative centrifugal force used was 1.75×10^4 g. Solubility of each sample was approximated by measuring the absorbance of the corresponding supernatant at 280 nm measured using a Beckman Coulter DU 730 UV/Vis Spectrophotometer.
Each peptide tested was incubated in 10 mM PBS buffer at pH 7.4 for 7 days at three different concentrations (100 μM, 500 μM and 1 mM) and the solution was then centrifuged. The apparent solubility was represented by the absorbance of the supernatant of each sample measured at 280 nm. The extinction coefficients of all polypeptides are very similar at 280 nm since they all contain the same aromatic residues and each contains a disulfide bond. […] A peptide which is soluble at 1 mM and above will show a linear dependence of absorbance on initial concentration. A peptide which is less soluble will deviate from linearity. The peptides were centrifuged after 7 days and their apparent solubility measured by measuring the absorbance at 280 nm of the supernatant of each solution. The apparent concentration refers to the concentration which would be obtained if all of the peptide dissolved. The absorbance of the supernatant is directly proportion to the amount of peptide in solution.

T1 sequence (O60894 27-148 partner, one chain of several): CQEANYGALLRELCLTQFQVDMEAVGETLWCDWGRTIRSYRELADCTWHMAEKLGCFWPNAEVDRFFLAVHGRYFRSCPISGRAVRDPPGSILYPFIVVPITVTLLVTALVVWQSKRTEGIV

Row | SMILES | solubility co-formulated with Novolin-N (absorbance at 215 nm and 277 nm, LC-MS) [1] | amyloid aggregates in TEM images [2] | amyloid formation monitored by thioflavin-T fluorescence [3] | EC50 [4] [nM] | EC50 [5] [nM] | solubility at neutral pH (absorbance of supernatant at 280 nm) [6]
1 | CC[C@H](C)[C@H](NC(=O)[C@H](C)NC(=O)CNC(=O)[C@H](Cc1ccccc1)NC(=O)[C@H](CC(N)=O)NC(=O)[C@H](CCCCN)NC(=O)[C@H](CO)NC(=O)[C@H](CO)NC(=O)[C@H](Cc1c[nH]cn1)NC(=O)[C@@H](NC(=O)[C@H](CC(C)C)NC(=O)[C@H](Cc1ccccc1)NC(=O)[C@H](CC(N)=O)NC(=O)[C@H](C)NC(=O)[C@H](CC(C)C)NC(=O)[C@H](CCCNC(=N)N)NC(=O)[C@H](CCC(N)=O)NC(=O)[C@@H](NC(=O)[C@H](C)NC(=O)[C@@H]1CSSC[C@H](NC(=O)[C@@H](N)CCCCN)C(=O)N[C@@H](CC(N)=O)C(=O)N[C@@H]([C@@H](C)O)C(=O)N[C@@H](C)C(=O)N[C@@H]([C@@H](C)O)C(=O)N1)[C@@H](C)O)C(C)C)C(=O)N[C@@H](CC(C)C)C(=O)N[C@@H](CO)C(=O)N[C@@H](CO)C(=O)N[C@H](C(=O)N[C@@H](CC(N)=O)C(=O)N[C@H](C(=O)NCC(=O)N[C@@H](CO)C(=O)N[C@@H](CCCCN)C(=O)N[C@H](C(=O)N[C@@H](Cc1ccc(O)cc1)C(N)=O)[C@@H](C)O)C(C)C)[C@@H](C)O [SEQ ID NO: 7] (HELM PEPTIDE1{K.C.N.T.A.T.C.A.T.Q.R.L.A.N.F.L.V.H.S.S.K.N.F.G.A.I.L.S.S.T.N.V.G.S.K.T.Y.[am]}$PEPTIDE1,PEPTIDE1,2:R3-7:R3$$$V2.0) | significantly higher absorbance when compared to both wild-type hIAPP and paramlintide | no aggregates are observed | none of the mutant hIAPP polypeptides forms amyloid | 0.741 | 2.4 | more substantially soluble than wild-type hIAPP
2 | CC(C)C[C@H](NC(=O)[C@H](CCCNC(=N)N)NC(=O)[C@H](CCC(N)=O)NC(=O)[C@@H](NC(=O)[C@H](C)NC(=O)[C@@H]1CSSC[C@H](NC(=O)[C@@H](N)CCCCN)C(=O)N[C@@H](CC(N)=O)C(=O)N[C@@H]([C@@H](C)O)C(=O)N[C@@H](C)C(=O)N[C@@H]([C@@H](C)O)C(=O)N1)[C@@H](C)O)C(=O)N[C@@H](C)C(=O)N[C@@H](CC(N)=O)C(=O)N[C@@H](Cc1ccccc1)C(=O)N[C@@H](CC(C)C)C(=O)N[C@H](C(=O)N[C@@H](Cc1c[nH]cn1)C(=O)N[C@@H](CO)C(=O)N[C@@H](CO)C(=O)N[C@@H](CCCCN)C(=O)N[C@@H](CC(N)=O)C(=O)N[C@@H](Cc1ccccc1)C(=O)N1CCC[C@H]1C(=O)N[C@@H](C)C(=O)N1CCC[C@H]1C(=O)N[C@@H](CC(C)C)C(=O)N[C@@H](CO)C(=O)N[C@@H](CO)C(=O)N[C@H](C(=O)N[C@@H](CC(N)=O)C(=O)N[C@H](C(=O)NCC(=O)N[C@@H](CO)C(=O)N[C@@H](CCCCN)C(=O)N[C@H](C(=O)N[C@@H](Cc1ccc(O)cc1)C(N)=O)[C@@H](C)O)C(C)C)[C@@H](C)O)C(C)C [SEQ ID NO: 8] (HELM PEPTIDE1{K.C.N.T.A.T.C.A.T.Q.R.L.A.N.F.L.V.H.S.S.K.N.F.P.A.P.L.S.S.T.N.V.G.S.K.T.Y.[am]}$PEPTIDE1,PEPTIDE1,2:R3-7:R3$$$V2.0) | significantly higher absorbance when compared to both wild-type hIAPP and paramlintide | no aggregates are observed | none of the mutant hIAPP polypeptides forms amyloid | 1.78 | 10.7 | more substantially soluble than wild-type hIAPP
